pIC50: −log10 of the molar value.
Tested on: HIV in the HTLV-1 transformed cell line MT-4
Experiment: organism not typed
Assay type: cell-based
Conditions: MT-4 cells, luciferase/cell titer glo readout after 96 hours, 10 point dose response

| Structure (SMILES) | pIC50 (MT4, 96 h) | pIC50 |
| --- | --- | --- |
| Cc1ccc(-c2c(C)c3c(c(C)c2[C@H](OC(C)(C)C)C(=O)O)CN(C(=O)c2cccc(F)c2C)C3)cc1 [Example 221, (S)-2-(tert-butoxy)-2-(2-(3-fluoro-2-methylbenzoyl)-4,7-dimethyl-6-(p-tolyl)isoindolin-5-yl)acetic acid] | 8.40 | – |
| Cc1c(-c2c(C)c3c(c(C)c2[C@H](OC(C)(C)C)C(=O)O)CN(c2nc4ccccc4o2)C3)cc(F)c2c1CCCO2 (atropisomer, axis not shown; (M)) [Example 202, (S)-2-((M)-2-(benzo[d]oxazol-2-yl)-6-(8-fluoro-5-methylchroman-6-yl)-4,7-dimethylisoindolin-5-yl)-2-(tert-butoxy)acetic acid] | 6.91 | – |
| Cc1ccc(-c2c(C)c3c(c(C)c2[C@H](OC(C)(C)C)C(=O)O)CN(C(=O)N2CCCCCC2)C3)cc1 [Example 60, (2S)-2-[2-(azepane-1-carbonyl)-4,7-dimethyl-6-(4-methylphenyl)-2,3-dihydro-1H-isoindol-5-yl]-2-(tert-butoxy)acetic acid] | 7.85 | – |
| Cc1ccc(-c2c(C)c3c(c(C)c2[C@H](OC(C)(C)C)C(=O)O)CN(C(=O)N2CC[C@@H](F)C2)C3)cc1 [Example 96, (S)-2-(tert-butoxy)-2-(2-((R)-3-fluoropyrrolidine-1-carbonyl)-4,7-dimethyl-6-(p-tolyl)isoindolin-5-yl)acetic acid] | 7.85 | – |
| Cc1ccc(-c2c(C)c3c(c(C)c2[C@H](OC(C)(C)C)C(=O)O)CN(Cc2ccc(Cl)cc2)C3)cc1 [Example 18, (S)-2-(tert-butoxy)-2-(2-(4-chlorobenzyl)-4,7-dimethyl-6-(p-tolyl)isoindolin-5-yl)acetic acid] | 7.12 | – |
| Cc1c2c(c(C)c([C@H](OC(C)(C)C)C(=O)O)c1C1=CCC(C)(C)CC1)CN(C(=O)c1cccc(F)c1)C2 [Example 302, (S)-2-(tert-butoxy)-2-(6-(4,4-dimethylcyclohex-1-en-1-yl)-2-(3-fluorobenzoyl)-4,7-dimethylisoindolin-5-yl)acetic acid] | 8.40 | – |
| Cc1ccc(-c2c(C)c3c(c(C)c2[C@H](OC(C)(C)C)C(=O)O)CN(C(=O)c2ccn(C)n2)C3)cc1 [Example 240, (S)-2-(tert-butoxy)-2-(4,7-dimethyl-2-(1-methyl-1H-pyrazole-3-carbonyl)-6-(p-tolyl)isoindolin-5-yl)acetic acid] | 6.92 | – |
| Cc1ccc(-c2c(C)c3c(c(C)c2[C@H](OC(C)(C)C)C(=O)O)CN(C(=O)C(=O)N2CCOC[C@H]2C)C3)cc1 [Example 130, (S)-2-(tert-butoxy)-2-(4,7-dimethyl-2-(2-((R)-3-methylmorpholino)-2-oxoacetyl)-6-(p-tolyl)isoindolin-5-yl)acetic acid] | 7.39 | – |
| Cc1ccc(-c2c(C)c3c(c(C)c2[C@H](OC(C)(C)C)C(=O)O)CN(C(=O)c2cc(F)ccc2F)C3)cc1 [Example 262, (S)-2-(tert-butoxy)-2-(2-(2,5-difluorobenzoyl)-4,7-dimethyl-6-(p-tolyl)isoindolin-5-yl)acetic acid] | 8.30 | – |
| Cc1ccc(-c2c(C)c3c(c(C)c2[C@H](OC(C)(C)C)C(=O)O)CNC3)cc1 [Example 124, (S)-2-(tert-butoxy)-2-(4,7-dimethyl-6-(p-tolyl)isoindolin-5-yl)acetic acid] | 5.96 | – |
| Cc1ccc(-c2c(C)c3c(c(C)c2C(OC(C)(C)C)C(=O)O)CN(CC2CCCCC2)C3)cc1 (centres unmarked) [Example 10, 2-(tert-butoxy)-2-(2-(cyclohexylmethyl)-4,7-dimethyl-6-(p-tolyl)isoindolin-5-yl)acetic acid] | 7.15 | – |
| Cc1ccc(-c2c(C)c3c(c(C)c2[C@H](OC(C)(C)C)C(=O)O)CN(C(=O)N2[C@H]4CC[C@@H]2CC4)C3)cc1 [Example 83, (S)-2-(2-((1R,4R)-7-azabicyclo[2.2.1]heptane-7-carbonyl)-4,7-dimethyl-6-(p-tolyl)isoindolin-5-yl)-2-(tert-butoxy)acetic acid] | 8.22 | – |
| Cc1c(-c2c(C)c3c(c(C)c2[C@H](OC(C)(C)C)C(=O)O)CN(C(=O)Nc2cccc(F)c2)C3)cc(F)c2c1CCCO2 (atropisomer, axis not shown; (M)) [Example 210, (S)-2-(tert-butoxy)-2-((M)-6-(8-fluoro-5-methylchroman-6-yl)-2-((3-fluorophenyl)carbamoyl)-4,7-dimethylisoindolin-5-yl)acetic acid] | 7.85 | – |
| Cc1ccc(-c2c(C)c3c(c(C)c2[C@H](OC(C)(C)C)C(=O)O)CN(C(=O)N2CCCCC2)C3)c(Cl)c1 [Example 316, (2S)-2-(tert-butoxy)-2-(6-(2-chloro-4-methylphenyl)-4,7-dimethyl-2-(piperidine-1-carbonyl)isoindolin-5-yl)acetic acid] | – | 7.39 |
| Cc1c(-c2c(C)c3c(c(C)c2[C@H](OC(C)(C)C)C(=O)O)CN(C(=O)N2CCOC[C@@H]2C)C3)cc(F)c2c1CCCO2 (atropisomer, axis not shown; (M)) [Example 209, (S)-2-(tert-butoxy)-2-((M)-6-(8-fluoro-5-methylchroman-6-yl)-4,7-dimethyl-2-((S)-3-methylmorpholine-4-carbonyl)isoindolin-5-yl)acetic acid] | 7.64 | – |
| Cc1ccc(-c2c(C)c3c(c(C)c2[C@H](OC(C)(C)C)C(=O)O)CN(C(=O)c2ccc(F)c(C)c2)C3)cc1 [Example 246, (S)-2-(tert-butoxy)-2-(2-(4-fluoro-3-methylbenzoyl)-4,7-dimethyl-6-(p-tolyl)isoindolin-5-yl)acetic acid] | 8.30 | – |
| Cc1c(-c2c(C)c3c(c(C)c2[C@H](OC(C)(C)C)C(=O)O)CN(C(=O)c2cc(F)ccc2F)C3)cc(F)c2c1CCCO2 (atropisomer, axis not shown; (M)) [Example 285, (S)-2-(tert-butoxy)-2-((M)-2-(2,5-difluorobenzoyl)-6-(8-fluoro-5-methylchroman-6-yl)-4,7-dimethylisoindolin-5-yl)acetic acid] | 8.70 | – |
| Cc1c(-c2c(C)c3c(c(C)c2[C@H](OC(C)(C)C)C(=O)O)CN(C(=O)c2cccc4c2OCO4)C3)cc(F)c2c1NCCO2 [Example 310, (2S)-2-(2-(benzo[d][1,3]dioxole-4-carbonyl)-6-(8-fluoro-5-methyl-3,4-dihydro-2H-benzo[b][1,4]oxazin-6-yl)-4,7-dimethylisoindolin-5-yl)-2-(tert-butoxy)acetic acid] | 7.74 | – |
| Cc1ccc(-c2c(C)c3c(c(C)c2[C@H](OC(C)(C)C)C(=O)O)CN(C(=O)c2ccc(C(F)(F)F)cc2)C3)cc1 [Example 227, (S)-2-(tert-butoxy)-2-(4,7-dimethyl-6-(p-tolyl)-2-(4-(trifluoromethyl)benzoyl)isoindolin-5-yl)acetic acid] | 7.85 | – |
| Cc1ccc(-c2c(C)c3c(c(C)c2[C@H](OC(C)(C)C)C(=O)O)CN(C(=O)c2ccccc2)C3)cc1 [Example 229, (S)-2-(2-benzoyl-4,7-dimethyl-6-(p-tolyl)isoindolin-5-yl)-2-(tert-butoxy)acetic acid] | 8.30 | – |
| Cc1ccc(-c2c(C)c3c(c(C)c2[C@H](OC(C)(C)C)C(=O)O)CN(C(=O)c2ccc(C(C)(C)C)cc2)C3)cc1 [Example 224, (S)-2-(tert-butoxy)-2-(2-(4-(tert-butyl)benzoyl)-4,7-dimethyl-6-(p-tolyl)isoindolin-5-yl)acetic acid] | 7.36 | – |
| Cc1ccc(-c2c(C)c3c(c(C)c2C(OC(C)(C)C)C(=O)O)CN(S(C)(=O)=O)C3)cc1 (centres unmarked) [Example 15, 2-(tert-Butoxy)-2-(4,7-dimethyl-2-(methylsulfonyl)-6-(p-tolyl)isoindolin-5-yl)acetic acid] | 5.67 | – |
| CNC(=O)c1cccc(CN2Cc3c(C)c(-c4ccc(C)cc4)c([C@H](OC(C)(C)C)C(=O)O)c(C)c3C2)c1 [Example 43, (2S)-2-(tert-butoxy)-2-(4,7-dimethyl-2-{[3-(methylcarbamoyl)phenyl]methyl}-6-(4-methylphenyl)-2,3-dihydro-1H-isoindol-5-yl)acetic acid] | 6.03 | – |
| Cc1ccc(-c2c(C)c3c(c(C)c2[C@H](OC(C)(C)C)C(=O)O)CN(C(=O)N2CCC(Cc4ccccc4)CC2)C3)cc1 [Example 95, (S)-2-(2-(4-benzylpiperidine-1-carbonyl)-4,7-dimethyl-6-(p-tolyl)isoindolin-5-yl)-2-(tert-butoxy)acetic acid] | 6.11 | – |
| Cc1ccc(-c2c(C)c3c(c(C)c2[C@H](OC(C)(C)C)C(=O)O)CN(C(=O)c2ccccc2C(C)(C)C)C3)cc1 [Example 242, (S)-2-(tert-butoxy)-2-(2-(2-(tert-butyl)benzoyl)-4,7-dimethyl-6-(p-tolyl)isoindolin-5-yl)acetic acid] | 7.89 | – |
| Cc1c(-c2c(C)c3c(c(C)c2[C@H](OC(C)(C)C)C(=O)O)CN(C(=O)N2CCCC(F)(F)C2)C3)cc(F)c2c1CCCO2 (atropisomer, axis not shown) [Example 102, (S)-2-(tert-butoxy)-2-((R)-2-(3,3-difluoropiperidine-1-carbonyl)-6-(8-fluoro-5-methylchroman-6-yl)-4,7-dimethylisoindolin-5-yl)acetic acid] | 8.70 | – |
| Cc1ccc(-c2c(C)c3c(c(C)c2[C@H](OC(C)(C)C)C(=O)O)CN(C(=O)N2CCNCC2)C3)cc1 [Example 86, (S)-2-(tert-butoxy)-2-(4,7-dimethyl-2-(piperazine-1-carbonyl)-6-(p-tolyl)isoindolin-5-yl)acetic acid] | 5.93 | – |
| Cc1c(-c2c(C)c3c(c(C)c2[C@H](OC(C)(C)C)C(=O)O)CN(C(=O)c2cccc(F)c2)C3)cc(F)c2c1CCCO2 (atropisomer, axis not shown; (M)) [Example 103, (2S)-2-(tert-butoxy)-2-((M)6-(8-fluoro-5-methylchroman-6-yl)-2-(3-fluorobenzoyl)-4,7-dimethylisoindolin-5-yl)acetic acid] | 8.70 | – |
| COc1cc(F)cc(C(=O)N2Cc3c(C)c(-c4cc(F)c5c(c4C)CCCO5)c([C@H](OC(C)(C)C)C(=O)O)c(C)c3C2)c1 (atropisomer, axis not shown; (M)) [Example 140, (S)-2-(tert-butoxy)-2-((M)-2-(3-fluoro-5-methoxybenzoyl)-6-(8-fluoro-5-methylchroman-6-yl)-4,7-dimethylisoindolin-5-yl)acetic acid] | 8.70 | – |

From US10112899B2 (ViiV HEALTHCARE UK LIMITED, priority 2014, dated 2018)
